Results reported in patent US20240124434A1, “ATF6 INHIBITORS AND USES THEREOF” (Altos Labs, Inc., priority 2018, published 2024).
pIC50: −log10 of the molar value. In brackets after ≈: the same amount, converted by molar mass.

What was measured:
ATF6 = assay: ERSE ATF6-luciferase reporter assay (thapsigargin-induced ER stress); type: cell-based, human; details: Homo sapiens, U2OS, thapsigargin-induced ER stress, U2-OS ATF6 luc reporter cells; for inhibition at 1 µM: 8 h, read-out: Inh. ATF6-Luc @ 1 μM [%], 1 μM test compound, 8 hr; for IC50: read-out: IC50 ATF6-Luc reporter [μM], dose-response 30 μM to 1 nM
[1] = In vitro microsomal stability, human liver microsomes; type: in vitro ADME; details: for half-life at […], 1 µM: human, read-out: T1/2 @ hLM; for half-life at […], 1 µM / microsomal CLint at […], 1 µM: human liver microsomes, pH 7.4; for microsomal CLint at […], 1 µM: intrinsic clearance, read-out: Clint @ hLM; for Rem. @ hLM (%): remaining fraction after 30 min, 1 μM compound, 0.5 mg/mL human liver microsomes, 1 mM NADPH
Procedure, shortened: (§1)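 1 μM compound was incubated at 37 °C with 0.5 mg/mL human, mouse or rat liver microsomes and 1 mM NADPH in 100 mM phosphate buffer pH 7.4. Reactions were stopped at 0, 5, 15 and 30 min with cold acetonitrile containing propranolol internal standard.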

[2] = In vitro microsomal stability, mouse liver microsomes; type: in vitro ADME; details: for microsomal CLint at […], 1 µM: intrinsic clearance, read-out: Clint @ mLM; for Rem. @ mLM (%): remaining fraction after 30 min, 1 μM compound, 0.5 mg/mL mouse liver microsomes, 1 mM NADPH
Procedure, shortened: as §1

[3] = In vitro microsomal stability, rat liver microsomes; type: in vitro ADME; details: for microsomal CLint at […], 1 µM: intrinsic clearance, read-out: Clint @ rLM; for Rem. @ rLM (%): remaining fraction after 30 min, 1 μM compound, 0.5 mg/mL rat liver microsomes, 1 mM NADPH
Procedure, shortened: as §1

[4] = Kinetic solubility (nephelometry); type: physicochemical; details: aqueous buffer, kinetic from dmso stock; PBS pH 7.4, 1% DMSO, 1 hour at 37° C., light scattering at 625 nm
Experimental: Concentration (μM) was then calculated by segmental regression. Amiodarone (#A8423 Aldrich) was used as positive control.

CYP2B6 = CYP2B6 (Homo sapiens (Human), UniProt P20813); assay: CYP inhibition in human liver microsomes; details: read-out: CYP-2B6; human liver microsomes; probe substrate bupropion
Experimental: (§2) CYP inhibition by test compounds in human liver microsomes (HLM) for seven major CYP450 isoforms CYP1A2, CYP2C9, CYP2D6, CYP2B6, CYP2C8, CYP2C19 and CYP3A4 were assessed. […] 50 μM phenacetin, 2 μM midazolam, 5 μM diclofenac, 50 μM mephenytoin, 80 μM bupropion, and 5 μM dextromethorphan were used as probe substrates of CYP1A2, CYP3A4, CYP2C9, CYP2C19, CYP2B6, and CYP2D6, respectively. The incubation times were 20 min for […], CYP2D6, CYP2C9, CYP2B6, and CYP2C8; 40 min for CYP2C19; and 10 min for CYP 3A4. Following incubations, the reactions were terminated with acetonitrile containing internal standard. The samples were centrifuged and the supernatants were analyzed for the formation of metabolites (1-hydroxymidazolam (CYP3A4), 4-hydroxydiclofenac (CYP2C9), 4-hydroxymephenytoin (CYP2C19) and dextrorphan (CYP2D6), hydroxybupropion (CYP2B6), acetaminophen (CYP1A2), desethylamodiaquine (CYP2C8)) by LC/MS/MS.

CYP2C19 = CYP2C19 (Homo sapiens (Human), UniProt P33261); assay: CYP inhibition in human liver microsomes; details: read-out: CYP-2C19; human liver microsomes; probe substrate mephenytoin
Experimental: as §2

CYP2C8 = CYP2C8 (Homo sapiens (Human), UniProt P10632); assay: CYP inhibition in human liver microsomes; details: read-out: CYP-2C8, metabolite desethylamodiaquine
Experimental: as §2

CYP2C9 = CYP2C9 (Homo sapiens (Human), UniProt P11712); assay: CYP inhibition in human liver microsomes; details: read-out: CYP-2C9; human liver microsomes; probe substrate diclofenac
Experimental: as §2

CYP2D6 = CYP2D6 (Homo sapiens (Human), UniProt P10635); assay: CYP inhibition in human liver microsomes; details: read-out: CYP-2D6; human liver microsomes; probe substrate dextromethorphan
Experimental: as §2

CYP3A4 = CYP3A4 (Homo sapiens (Human), UniProt P08684); assay: CYP inhibition in human liver microsomes; details: read-out: CYP-3A4; human liver microsomes; probe substrate midazolam
Experimental: as §2

[5] = mouse, in vivo, po, 10 mg/kg; for AUCExtr [%] / F [%] / Vz: Balb/c
Experimental: (§3) Tested compounds were formulated at 1 mg/mL as a dosing solution for oral administration in vehicle A: 10% dimethylacetamide (DMAC), 20% propylene glycol, and 40% PEG-400 or vehicle B: 10% Kolliphor® EL and 10% ethanol (EtOH).
(§4) Animals were acclimated for a minimum period of 4 days upon arrival at the testing facility.
(§5) At the day of study, mice were weighed, identified by marking the tail with numbers using a non-toxic permanent marker, and designated into ten experimental groups (n=3 per group).
(§6) Non-dosed mice were used to collect samples of zero time points. […] Blood samples were centrifuged immediately at 9,000 g at 4° C. for 5 minutes and then plasmas were separated. Plasma samples were placed into individually labeled cryovials and stored in a −80° C. freezer until LC/MS/MS bioanalysis.
(§7) The bioanalysis of plasma samples was conducted with a QTRAP 4500 triple quadrupole mass spectrometer (Applied Biosystems SCIEX) in the positive ion mode and interfaced with an Ekspert Ultra LC100 UPLC System (Eksigent). Calibration standards (0.01 to 10 μM) and QCs (0.02, 0.2 and 2.0 μM) were prepared from naïve mouse plasma in parallel with mouse plasma study samples (60 μL) by precipitation with three volumes of ice cold internal standard solution (acetonitrile containing 20 μM of theophylline). The precipitated samples were centrifuged at 6,100 g for 30 min. Following centrifugation, an aliquot of each supernatant was transferred to an autosampler plate and diluted with two volumes of aqueous mobile phase (0.1% formic acid in water). Samples were injected onto a reverse phase analytical column (YMC Triart C18; 2.0×50 mm; 1.9 μm; YMC CO) and eluted with a gradient of 0.1% formic acid in Acetonitrile. Assayed test compound and internal standards were monitored by a multiple reaction monitoring (MRM) experiment using an Analyst software (v1.6.2, Applied Biosystems SCIEX). Quantitation was conducted using a MultiQuant software (v2.1, Applied Biosystems SCIEX) and the resulting calibration curve was fitted with a linear regression and 1/x weighting. The lower limits of quantitation were 1<LLQ <5 ng/mL.

in vivo = details: Balb/c, mouse, po, 10 mg/kg
Experimental: as §3, §4, §5, §6, §7

[6] = mouse, mouse liver microsomes, pH 7.4, read-out: T1/2 @ mLM
[7] = rat, rat liver microsomes, pH 7.4, read-out: T1/2 @ rLM

Sequence of CYP2C19 (P33261 whole entry): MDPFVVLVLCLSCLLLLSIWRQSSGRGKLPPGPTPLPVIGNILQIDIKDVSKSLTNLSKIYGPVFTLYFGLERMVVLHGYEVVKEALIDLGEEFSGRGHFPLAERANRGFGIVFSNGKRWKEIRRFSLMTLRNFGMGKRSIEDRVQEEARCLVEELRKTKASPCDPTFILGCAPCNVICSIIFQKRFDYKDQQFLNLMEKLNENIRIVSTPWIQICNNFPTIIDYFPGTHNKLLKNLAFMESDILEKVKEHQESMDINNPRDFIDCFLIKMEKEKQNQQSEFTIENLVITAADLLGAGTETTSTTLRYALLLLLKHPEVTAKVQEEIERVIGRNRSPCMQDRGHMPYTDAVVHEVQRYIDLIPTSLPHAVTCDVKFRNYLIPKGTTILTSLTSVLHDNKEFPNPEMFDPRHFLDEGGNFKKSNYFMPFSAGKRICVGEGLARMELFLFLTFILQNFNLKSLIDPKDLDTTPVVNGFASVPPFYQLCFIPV
Sequence of CYP2D6 (P10635 whole entry): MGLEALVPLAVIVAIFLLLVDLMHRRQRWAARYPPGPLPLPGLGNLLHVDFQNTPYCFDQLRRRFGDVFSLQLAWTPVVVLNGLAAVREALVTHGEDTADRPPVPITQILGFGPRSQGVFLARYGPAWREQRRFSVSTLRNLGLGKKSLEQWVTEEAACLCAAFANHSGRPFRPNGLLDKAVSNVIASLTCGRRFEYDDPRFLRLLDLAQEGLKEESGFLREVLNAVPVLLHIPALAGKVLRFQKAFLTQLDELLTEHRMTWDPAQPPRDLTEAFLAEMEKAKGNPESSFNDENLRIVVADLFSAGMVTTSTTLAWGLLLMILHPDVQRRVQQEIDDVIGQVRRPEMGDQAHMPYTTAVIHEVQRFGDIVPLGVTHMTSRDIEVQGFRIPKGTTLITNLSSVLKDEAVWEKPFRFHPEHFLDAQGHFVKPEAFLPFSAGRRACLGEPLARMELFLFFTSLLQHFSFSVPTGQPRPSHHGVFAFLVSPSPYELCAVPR
Sequence of CYP3A4 (P08684 whole entry): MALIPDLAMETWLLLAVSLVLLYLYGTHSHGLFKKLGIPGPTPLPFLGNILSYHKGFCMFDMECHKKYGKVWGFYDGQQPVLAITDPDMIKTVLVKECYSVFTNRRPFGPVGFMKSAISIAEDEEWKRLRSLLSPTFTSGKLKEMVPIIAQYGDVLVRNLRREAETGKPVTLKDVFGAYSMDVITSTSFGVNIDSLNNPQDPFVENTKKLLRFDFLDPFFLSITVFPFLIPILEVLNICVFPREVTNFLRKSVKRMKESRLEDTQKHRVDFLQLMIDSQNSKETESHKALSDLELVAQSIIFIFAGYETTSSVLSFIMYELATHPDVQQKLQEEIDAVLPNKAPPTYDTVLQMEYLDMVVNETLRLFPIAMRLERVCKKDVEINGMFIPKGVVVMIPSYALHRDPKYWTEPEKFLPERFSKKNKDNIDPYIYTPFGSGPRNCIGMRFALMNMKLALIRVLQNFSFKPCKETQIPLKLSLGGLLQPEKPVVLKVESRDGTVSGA
Sequence of CYP2B6 (P20813 whole entry, canonical isoform): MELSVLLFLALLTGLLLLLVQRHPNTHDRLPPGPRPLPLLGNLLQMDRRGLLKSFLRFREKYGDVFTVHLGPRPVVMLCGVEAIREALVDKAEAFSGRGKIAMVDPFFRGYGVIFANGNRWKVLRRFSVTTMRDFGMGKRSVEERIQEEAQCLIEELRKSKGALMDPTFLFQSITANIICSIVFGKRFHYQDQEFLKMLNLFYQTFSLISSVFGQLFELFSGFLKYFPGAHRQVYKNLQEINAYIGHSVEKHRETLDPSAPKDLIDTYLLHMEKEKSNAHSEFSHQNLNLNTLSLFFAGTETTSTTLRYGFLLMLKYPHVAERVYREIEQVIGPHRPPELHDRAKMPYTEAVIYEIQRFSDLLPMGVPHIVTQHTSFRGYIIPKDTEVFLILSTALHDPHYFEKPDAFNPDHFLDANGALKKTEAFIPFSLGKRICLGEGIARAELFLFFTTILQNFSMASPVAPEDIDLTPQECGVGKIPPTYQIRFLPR
Sequence of CYP2C8 (P10632 whole entry): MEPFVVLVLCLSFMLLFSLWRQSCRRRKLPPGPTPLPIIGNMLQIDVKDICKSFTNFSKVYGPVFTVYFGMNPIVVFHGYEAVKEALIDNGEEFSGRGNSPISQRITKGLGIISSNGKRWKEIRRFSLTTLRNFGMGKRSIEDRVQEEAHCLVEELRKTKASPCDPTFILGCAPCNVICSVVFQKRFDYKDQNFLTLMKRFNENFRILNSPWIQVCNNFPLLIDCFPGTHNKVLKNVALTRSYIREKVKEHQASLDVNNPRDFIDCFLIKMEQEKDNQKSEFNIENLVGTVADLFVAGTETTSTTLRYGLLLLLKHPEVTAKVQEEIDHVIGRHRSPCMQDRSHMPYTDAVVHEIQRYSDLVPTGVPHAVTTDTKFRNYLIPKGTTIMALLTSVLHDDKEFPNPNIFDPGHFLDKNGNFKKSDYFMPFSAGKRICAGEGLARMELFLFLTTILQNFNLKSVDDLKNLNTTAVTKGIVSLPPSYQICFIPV
Sequence of CYP2C9 (P11712 whole entry): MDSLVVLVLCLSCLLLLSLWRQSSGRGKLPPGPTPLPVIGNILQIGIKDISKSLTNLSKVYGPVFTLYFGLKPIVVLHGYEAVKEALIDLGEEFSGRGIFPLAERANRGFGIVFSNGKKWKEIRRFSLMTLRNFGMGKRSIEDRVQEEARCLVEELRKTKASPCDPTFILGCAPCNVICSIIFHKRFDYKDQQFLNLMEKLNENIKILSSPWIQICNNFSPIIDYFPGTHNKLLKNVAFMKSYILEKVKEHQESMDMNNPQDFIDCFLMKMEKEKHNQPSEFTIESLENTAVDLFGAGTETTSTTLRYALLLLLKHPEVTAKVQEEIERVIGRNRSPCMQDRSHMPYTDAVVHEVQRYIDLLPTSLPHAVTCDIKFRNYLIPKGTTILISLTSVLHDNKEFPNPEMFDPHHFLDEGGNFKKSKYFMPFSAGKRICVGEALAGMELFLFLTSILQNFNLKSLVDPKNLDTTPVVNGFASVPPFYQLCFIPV

SMILES | inhibition at 1 µM (ATF6) | IC50 (ATF6) | half-life at […], 1 µM [1] | microsomal CLint at […], 1 µM [1] | Rem. @ hLM (%) [1] | microsomal CLint at […], 1 µM ([2]; pH 7.4, mouse liver microsomes) | Rem. @ mLM (%) [2] | microsomal CLint at […], 1 µM ([3]; pH 7.4, rat liver microsomes) | Rem. @ rLM (%) [3] | solubility kinetic at 1 h [4] | pIC50 (CYP2B6) | pIC50 (CYP2C19) | pIC50 (CYP2C8) | pIC50 (CYP2C9) | pIC50 (CYP2D6) | pIC50 (CYP3A4) | AUCExtr [%] [5] | F [%] [5] | Vz [5] | Last time point for AUClast [5] | further results
O=C(Nc1cnn(Cc2ccc(C(F)(F)F)cc2C(F)(F)F)c1)c1cc(-c2ccccn2)on1 [Compound 11, N-(1-(2,4-bis(trifluoromethyl)benzyl)-1H-pyrazol-4-yl)-5-(pyridin-2-yl)isoxazole-3-carboxamide] | > 50% | < 1 µM | 1.12 h | 21 µL/min/mg | 73.5% | 55 µL/min/mg | 40.8% | 44 µL/min/mg | 44.8% | 9.41 µM (≈ 4.53 µg/mL) | 4.77 | 5.01 | 5.96 | 5.11 | < 4.30 | < 4.30 | 5.07% | 48.6% | 8.74 L/kg | 24 h | half-life at 1 μM [2, 6]: 0.422 h; half-life at 1 μM [3, 7]: 0.522 h; AUC(0-inf) (in vivo): 10300 ng·h/mL; AUC(0-t) (in vivo): 9780 ng·h/mL; Cmax (in vivo): 2270 ng/mL; Tmax (in vivo): 0.25 h; half-life (in vivo): 6.24 h
C[C@H](c1ccc(C(F)(F)F)cc1C(F)(F)F)n1cc(NC(=O)c2cc(-c3ccccn3)no2)cn1 [Compound 76, (R)—N-(1-(1-(2,4-bis(trifluoromethyl)phenyl)ethyl)-1H-pyrazol-4-yl)-3-(pyridin-2-yl)isoxazole-5-carboxamide] | > 50% | < 1 µM | 0.96 h | 24.1 µL/min/mg | 69.7% | 19.3 µL/min/mg | 74.9% | 34.7 µL/min/mg | 59.4% | 7.03 µM (≈ 3.48 µg/mL) | 5.19 | 5.44 | 5.94 | 5.22 | 5.12 | < 4.30 | 2.55% | 50.6% | 1.45 L/kg | 24 h | half-life at […], 1 µM [2, 6]: 1.2 h; half-life at […], 1 µM [3, 7]: 0.665 h; AUC(0-inf) (in vivo): 45300 ng·h/mL; AUC(0-t) (in vivo): 44100 ng·h/mL; Cmax (in vivo): 5180 ng/mL; Tmax (in vivo): 1 h; half-life (in vivo): 4.54 h
O=C(Nc1cnn(Cc2ccc(C(F)(F)F)cc2C(F)(F)F)c1)c1cc(-c2cnccn2)on1 [Compound 114, N-(1-(2,4-bis(trifluoromethyl)benzyl)-1H-pyrazol-4-yl)-5-(pyrazin-2-yl)isoxazole-3-carboxamide] | > 50% | < 1 µM | 3.55 h | 6.5 µL/min/mg | 90.4% | 8.4 µL/min/mg | 86.8% | 25 µL/min/mg | 69.7% | 1.17 µM (≈ 0.564 µg/mL) | < 4.30 | < 4.30 | < 4.30 | < 4.30 | < 4.30 | < 4.30 | 14% | 43.3% | 10.5 L/kg | 24 h | half-life at […], 1 µM [2, 6]: 2.75 h; half-life at […], 1 µM [3, 7]: 0.923 h; AUC(0-inf) (in vivo): 11900 ng·h/mL; AUC(0-t) (in vivo): 10300 ng·h/mL; Cmax (in vivo): 899 ng/mL; Tmax (in vivo): 0.5 h; half-life (in vivo): 8.66 h
